# Laboratory results as given in patent US20240228482A1, “COMPOUNDS, COMPOSITIONS AND METHODS OF TREATING CANCER” (HOTSPOT THERAPEUTICS, INC., priority 2021, published 2024).
# Target: T1, CBL-B (Homo sapiens, UniProt Q13191)
# T1 construct: GST
# Assay: CBL-B TR-FRET IC50 screening (E1/E2 ubiquitination, Biotin-Ubiquitin, Anti GST-Tb donor / Streptavidin-d2 acceptor)
# Format: biochemical
# Settings: CBL-B 10 nM final; 11-point titration from 100 uM; binned A-F; read-out: CBL-B TR-FRET activity IC50
# T1 sequence (Q13191 whole entry): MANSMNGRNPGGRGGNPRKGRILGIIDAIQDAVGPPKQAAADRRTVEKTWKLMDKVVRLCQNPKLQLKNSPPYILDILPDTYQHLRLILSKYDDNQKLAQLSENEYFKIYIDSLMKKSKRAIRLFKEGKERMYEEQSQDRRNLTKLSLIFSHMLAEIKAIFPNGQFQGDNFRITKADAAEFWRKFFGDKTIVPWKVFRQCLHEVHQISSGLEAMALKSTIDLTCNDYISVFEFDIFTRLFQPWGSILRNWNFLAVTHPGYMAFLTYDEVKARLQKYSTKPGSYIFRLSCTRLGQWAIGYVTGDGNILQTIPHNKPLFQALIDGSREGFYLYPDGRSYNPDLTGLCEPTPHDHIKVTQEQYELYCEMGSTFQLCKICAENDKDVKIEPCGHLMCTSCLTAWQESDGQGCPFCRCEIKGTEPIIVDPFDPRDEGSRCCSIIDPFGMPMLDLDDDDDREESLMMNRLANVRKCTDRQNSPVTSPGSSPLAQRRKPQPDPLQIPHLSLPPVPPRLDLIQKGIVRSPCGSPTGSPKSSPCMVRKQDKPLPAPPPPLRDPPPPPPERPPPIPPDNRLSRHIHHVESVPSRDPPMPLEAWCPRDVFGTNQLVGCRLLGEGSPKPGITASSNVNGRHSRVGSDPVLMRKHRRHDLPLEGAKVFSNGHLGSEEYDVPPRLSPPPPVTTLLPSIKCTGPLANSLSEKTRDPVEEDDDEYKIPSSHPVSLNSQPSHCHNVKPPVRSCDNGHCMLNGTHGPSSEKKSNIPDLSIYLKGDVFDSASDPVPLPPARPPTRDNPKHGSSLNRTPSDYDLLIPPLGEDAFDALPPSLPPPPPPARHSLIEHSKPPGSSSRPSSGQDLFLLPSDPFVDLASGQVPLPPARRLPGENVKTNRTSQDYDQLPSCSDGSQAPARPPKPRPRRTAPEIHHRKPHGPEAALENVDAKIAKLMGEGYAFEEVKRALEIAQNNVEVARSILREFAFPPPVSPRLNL
row,Compound,IC50 [µM]
1,"C[C@H]1CCCN(Cc2cc(C(F)(F)F)c3cn(-c4cccc([C@@H](c5nncn5C)[C@H]5C[C@H](CO)C5)c4)c(=O)n3c2)C1 (single isomer, unassigned) [Compound 355]",> 10
2,COCCNCc1cc(C(F)(F)F)c2cn(-c3cccc(C4(Cc5nncn5C)COC4)c3)c(=O)n2c1 [Compound 50],< 0.1
3,Cc1cc(-n2cc3c(C(F)(F)F)cc(CN4CCO[C@H](C)C4)cn3c2=O)cc(C2(Cc3nncn3C)COC2)c1 [Compound 277],> 10
4,"CC1CC(c2cccc(-n3cc4c(C(F)(F)F)cc(Br)cn4c3=O)c2)(c2nncn2C)C1 (single isomer, unassigned) [Compound 154]",< 0.1
5,"C=C(C)C[C@@H](c1cccc(-n2cc3c(C(F)(F)F)cc(CN4CCC[C@H](C)C4)cn3c2=O)c1)c1nncn1C (single isomer, unassigned) [Compound 68]",< 0.1
6,Cn1cnnc1C(c1cccc(-n2cc3c(C(F)(F)F)cccn3c2=O)c1)C1COC1 (stereo not drawn) [Compound 141],1 to 3
7,Cn1cnnc1[C@H](c1cccc(-n2cc3c(C(F)(F)F)cc(CN4CCN(C=O)CC4)cn3c2=O)c1)C1CCC1 [Compound 340_P1],< 0.1
8,C[C@@H](Cc1nnc[nH]1)c1cccc(-n2cc3c(C(F)(F)F)cccn3c2=O)c1 [Compound 47],> 10
9,COCCN(c1cccc(-n2cc3c(C(F)(F)F)cc(CN4CCC[C@H](C)C4)cn3c2=O)c1)c1nncn1C [Compound 375],0.1 to 0.3
10,COc1cc(-n2cc3c(C(F)(F)F)cc(Br)cn3c2=O)cc(C2(Cc3nncn3C)COC2)c1 [Compound 105],0.1 to 0.3
11,[2H]c1nnc(CC2(c3cccc(-n4cc5c(C(F)(F)F)cc(CN6CCC[C@H](C)C6)cn5c4=O)c3)COC2)n1C [Compound 209],< 0.1
12,Cc1c[nH]nc1C1(c2cccc(-n3cc4c(C(F)(F)F)cc(CN5CCO[C@H](C)C5)cn4c3=O)c2)CC2(CC2)C1 [Compound 241],0.301 to 1
13,"CC(c1cc(C(F)(F)F)c2cn(-c3cccc([C@@H](c4nncn4C)C4CCC4)c3)c(=O)n2c1)N1CCC[C@H](C)C1 (single isomer, unassigned) [Compound 192]",< 0.1
14,Cn1cnnc1[C@@H](c1cccc(-n2cc3c(C(F)(F)F)cc(CNC4CC(F)(F)C4)cn3c2=O)c1)C1CCC1 [Compound 346],> 10
15,C[C@H]1CCCN(Cc2cc(C(F)(F)F)c3cn(-c4cccc(C5(Cc6nncn6C)COC5)c4)c(=O)n3c2)C1 [Compound 29],< 0.1
16,"Cn1cnnc1[C@H](F)C1(c2cccc(-n3cc4c(C(F)(F)F)cc(CN5CCC(F)CC5)cn4c3=O)c2)COC1 (single isomer, unassigned) [Compound 45]",< 0.1
17,Cn1cnnc1CC1(c2cccc(-n3cc4c(C(F)(F)F)cc(COCCO)cn4c3=O)c2)COC1 [Compound 90],0.1 to 0.3
18,"Cn1cnnc1C[C@H]1CCc2c1cccc2-n1cc2c(C(F)(F)F)cccn2c1=O (single isomer, unassigned) [Compound 16]",> 10
19,C[C@H]1CCCN(Cc2cc(C(F)(F)F)c3cn(-c4cccc([C@H](c5nncn5C)C5CCC5)c4)c(=O)n3c2)C1 [Compound 85],< 0.1
20,"C[C@H]1CN(Cc2cc(C(F)(F)F)c3cn(-c4cccc([C@]5(Cc6nncn6C)C[C@H](C#N)C5)c4)c(=O)n3c2)CCC1(F)F (single isomer, unassigned) [Compound 205]",< 0.1
21,Cc1c2c(C(F)(F)F)cccn2c(=O)n1-c1cccc(C(C)Cc2nncn2C)c1 (stereo not drawn) [Compound 27],> 10
22,CN1CCC=C(c2cc(C(F)(F)F)c3cn(-c4cccc(C5(Cc6nncn6C)COC5)c4)c(=O)n3c2)C1 [Compound 63],0.1 to 0.3
23,"Cn1cnnc1[C@]1(c2cccc(-n3cc4c(C(F)(F)F)cc(CN5CCC6(CC6)C5)cn4c3=O)c2)C[C@@H](C)C1 (single isomer, unassigned) [Compound 215]",< 0.1
24,"C[C@H]1CCCCN(Cc2cc(C(F)(F)F)c3cn(-c4cccc([C@H](c5nncn5C)C5CCC5)c4)c(=O)n3c2)C1 (single isomer, unassigned) [Compound 273]",< 0.1
25,Cn1cnnc1CC1(c2cccc(-n3cc4c(C(F)(F)F)cc(Br)cn4c3=O)c2)COC1 [Compound 7],0.1 to 0.3
26,Cn1cnnc1C1(c2cccc(-n3cc4c(C(F)(F)F)cc(CN5CC[C@H](F)C5)cn4c3=O)c2)CC2(CC2)C1 [Compound 117],< 0.1
27,Cn1cnnc1CC1(c2cccc(-n3cc4c(C(F)(F)F)cc(CN5CCC[C@@H](O)C5)cn4c3=O)c2)COC1 [Compound 126],< 0.1

# Same assay, conditions: second part of Table 2 (head 'Patent Cmpd No / Updated Activity'); same CBL-B TR-FRET IC50 bins A-F; read-out: Updated Activity
row,Compound,IC50 [µM]
1,"Cn1cnnc1[C@@H](c1cc(C#N)cc(-n2cc3c(C(F)(F)F)cc(CN4CCC5(CC5)C4)cn3c2=O)c1)C1CCC1 (single isomer, unassigned) [Compound 496]",> 10
2,CC(=O)N1CCC(c2cc(C(F)(F)F)c3cn(-c4cccc([C@H](c5nncn5C)C5CCC5)c4)c(=O)n3c2)CC1 [Compound 398],< 0.1
3,COC(=O)N1CCC(c2cc(C(F)(F)F)c3cn(-c4cccc([C@H](c5nncn5C)C5CCC5)c4)c(=O)n3c2)CC1 [Compound 395],0.1 to 0.3
4,"COCc1csc([C@@H](c2cccc(-n3cc4c(C(F)(F)F)cc(CN5CCC[C@H](C)C5)cn4c3=O)c2)C2CCC2)n1 (single isomer, unassigned) [Compound 389]",> 10
5,C[C@H]1CCCN(Cc2cc(C(F)(F)F)c3cn(-c4cc([C@H](c5nncn5C)C5CCC5)ccn4)c(=O)n3c2)C1 [Compound 627_P2],1 to 3
6,"C[C@@H](c1cc(C(F)(F)F)c2cn(-c3cccc([C@H](c4nncn4C)C4CCC4)c3)c(=O)n2c1)N1CC[C@H](C#N)C1 (single isomer, unassigned) [Compound 573_P2]",< 0.1
7,"CO[C@H]1C[C@](c2cccc(-n3cc4c(C(F)(F)F)cc([C@H](C)N5CC[C@@H](F)C5)cn4c3=O)c2)(c2nncn2C)C1 (single isomer, unassigned) [Compound 618]",0.1 to 0.3
8,"C[C@H]1CN(Cc2cc(C(F)(F)F)c3cn(-c4cccc([C@H](c5nncn5C)C5CCC5)c4)c(=O)n3c2)CC[C@H]1O (single isomer, unassigned) [Compound 571]",< 0.1
9,"C[C@@H]1CN(Cc2cc(C(F)(F)F)c3cn(-c4cccc([C@H](c5nncn5C)C5CCC5)c4)c(=O)n3c2)CC[C@H]1O (single isomer, unassigned) [Compound 586]",< 0.1
10,"Cn1cnnc1[C@@H](c1cc(-c2cnoc2)cc(-n2cc3c(C(F)(F)F)cccn3c2=O)c1)C1CCC1 (single isomer, unassigned) [Compound 455]",> 10
11,"COC[C@H]1C[C@H]([C@H](c2cccc(-n3cc4c(C(F)(F)F)cc(CN5CCC[C@H](C)C5)cn4c3=O)c2)c2nncn2C)C1 (single isomer, unassigned) [Compound 493]",> 10
12,"COCc1csc([C@H](c2cccc(-n3cc4c(C(F)(F)F)cc(CN5CCC[C@H](C)C5)cn4c3=O)c2)C2CCC2)n1 (single isomer, unassigned) [Compound 390]",> 10
